Test results from PubChem BioAssay (NCI).
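Five concentrations, 48 hours, 96-well plates. The concentration for full growth arrest is given as TGI.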

How the values were obtained:
Assay in all cases: growth of human tumour cells (NCI), 48 h
786-0 renal = system: 786-0 renal
A498 renal = system: A498 renal
A549 NSCLC = system: A549 NSCLC
ACHN renal = system: ACHN renal
BT-549 breast = system: BT-549 breast
CAKI-1 renal = system: CAKI-1 renal
CCRF-CEM leukemia = system: CCRF-CEM leukemia
COLO 205 colon = system: COLO 205 colon
DU-145 prostate = system: DU-145 prostate
EKVX NSCLC = system: EKVX NSCLC
HCC-2998 colon = system: HCC-2998 colon
HCT-116 colon = system: HCT-116 colon
HCT-15 colon = system: HCT-15 colon
HL-60(TB) leukemia = system: HL-60(TB) leukemia
HOP-62 NSCLC = system: HOP-62 NSCLC
HOP-92 NSCLC = system: HOP-92 NSCLC
HT29 colon = system: HT29 colon
IGROV1 ovarian = system: IGROV1 ovarian
K-562 leukemia = system: K-562 leukemia
KM12 colon = system: KM12 colon
LOX IMVI melanoma = system: LOX IMVI melanoma
M14 melanoma = system: M14 melanoma
MALME-3M melanoma = system: MALME-3M melanoma
MCF7 breast = system: MCF7 breast
MDA-MB-231 breast = system: MDA-MB-231 breast
MDA-MB-435 = system: MDA-MB-435
MDA-N = system: MDA-N
MOLT-4 leukemia = system: MOLT-4 leukemia
NCI-H23 lung = system: NCI-H23 lung
NCI-H460 lung = system: NCI-H460 lung
NCI-H522 lung = system: NCI-H522 lung
NCI/ADR-RES ovarian = system: NCI/ADR-RES ovarian
OVCAR-3 ovarian = system: OVCAR-3 ovarian
OVCAR-4 ovarian = system: OVCAR-4 ovarian
OVCAR-5 ovarian = system: OVCAR-5 ovarian
OVCAR-8 ovarian = system: OVCAR-8 ovarian
PC-3 prostate = system: PC-3 prostate
RXF 393 renal = system: RXF 393 renal
SF-268 CNS = system: SF-268 CNS
SF-295 CNS = system: SF-295 CNS
SF-539 CNS = system: SF-539 CNS
SK-MEL-2 melanoma = system: SK-MEL-2 melanoma
SK-MEL-28 melanoma = system: SK-MEL-28 melanoma
SK-MEL-5 melanoma = system: SK-MEL-5 melanoma
SK-OV-3 ovarian = system: SK-OV-3 ovarian
SN12C renal = system: SN12C renal
SNB-19 CNS = system: SNB-19 CNS
SNB-75 CNS = system: SNB-75 CNS
SW-620 colon = system: SW-620 colon
T-47D breast = system: T-47D breast
TK-10 renal = system: TK-10 renal
U251 CNS = system: U251 CNS
UACC-257 melanoma = system: UACC-257 melanoma
UACC-62 melanoma = system: UACC-62 melanoma
UO-31 renal = system: UO-31 renal
HS 578T breast = system: HS 578T breast
NCI-H226 lung = system: NCI-H226 lung
RPMI-8226 leukemia = system: RPMI-8226 leukemia
SR leukemia = system: SR leukemia

With O=C(CCO)OCCCCCC/C=C\CCCCCC/C=C\CCCCCCCCOC(=O)CCO the TGI (786-0 renal) was 32.5 µM, the TGI (A498 renal) was 50 µM and the TGI (A549 NSCLC) was 29.6 µM. The TGI (ACHN renal) was 64.3 µM, the TGI (BT-549 breast) was 33.1 µM and the TGI (CAKI-1 renal) was 39.3 µM. For the same molecule, the TGI (CCRF-CEM leukemia) was 32.2 µM, the TGI (COLO 205 colon) was over 100 µM and the TGI (DU-145 prostate) was 30 µM. It also gave a TGI (EKVX NSCLC) of 32.3 µM, a TGI (HCC-2998 colon) of 30.1 µM and a TGI (HCT-116 colon) of 29.9 µM. For the same molecule, the TGI (HCT-15 colon) was 29.1 µM, the TGI (HL-60(TB) leukemia) was 32.1 µM and the TGI (HOP-62 NSCLC) was 36.1 µM. The TGI (HOP-92 NSCLC) was 32.5 µM, the TGI (HT29 colon) was 31.5 µM and the TGI (IGROV1 ovarian) was 31.2 µM. The TGI (K-562 leukemia) was 30.4 µM, the TGI (KM12 colon) was 46 µM and the TGI (LOX IMVI melanoma) was 36.6 µM. It also gave a TGI (M14 melanoma) of 30.9 µM, a TGI (MALME-3M melanoma) of 34.7 µM and a TGI (MCF7 breast) of 40.3 µM. It also gave a TGI (MDA-MB-231 breast) of 32.5 µM, a TGI (MDA-MB-435) of 45.7 µM and a TGI (MDA-N) of 33.2 µM. For the same molecule, the TGI (MOLT-4 leukemia) was 28.6 µM, the TGI (NCI-H23 lung) was 31.8 µM and the TGI (NCI-H460 lung) was 31.4 µM. It also gave a TGI (NCI-H522 lung) of 30.1 µM, a TGI (NCI/ADR-RES ovarian) of 32.7 µM and a TGI (OVCAR-3 ovarian) of 41.2 µM. For the same molecule, the TGI (OVCAR-4 ovarian) was 55.9 µM, the TGI (OVCAR-5 ovarian) was 32.3 µM and the TGI (OVCAR-8 ovarian) was 36.3 µM. It also gave a TGI (PC-3 prostate) of 30.8 µM, a TGI (RXF 393 renal) of 35 µM and a TGI (SF-268 CNS) of 32.5 µM. It also gave a TGI (SF-295 CNS) of 35.5 µM, a TGI (SF-539 CNS) of over 100 µM and a TGI (SK-MEL-2 melanoma) of 31 µM. It also gave a TGI (SK-MEL-28 melanoma) of 37.5 µM, a TGI (SK-MEL-5 melanoma) of over 100 µM and a TGI (SK-OV-3 ovarian) of 37.5 µM. The TGI (SN12C renal) was 31 µM, the TGI (SNB-19 CNS) was 32.9 µM and the TGI (SNB-75 CNS) was 34 µM. It also gave a TGI (SW-620 colon) of 80.4 µM, a TGI (T-47D breast) of 35.9 µM and a TGI (TK-10 renal) of 31.5 µM. It also gave a TGI (U251 CNS) of 30.3 µM, a TGI (UACC-257 melanoma) of 30.9 µM and a TGI (UACC-62 melanoma) of 32.9 µM. The TGI (UO-31 renal) was 32.6 µM.
Molecule CC(O)=NC(Cc1ccc2ccccc2c1)C(O)=NC(Cc1ccc(Cl)cc1)C(O)=NC(Cc1c[nH]c2ccccc12)C(O)=NC(CO)C(O)=NC(Cc1ccc(O)cc1)C(O)=NC(CCCN=C(N)N)C(O)=NC(CC(C)C)C(O)=NC(CCCN=C(N)N)C(=O)N1CCCC1C(O)=NC(C)C(=N)O (stereo not given) has a TGI (786-0 renal) of over 100 µM, a TGI (A498 renal) of over 100 µM and a TGI (A549 NSCLC) of over 100 µM. It also gave a TGI (ACHN renal) of over 100 µM, a TGI (BT-549 breast) of over 100 µM and a TGI (CAKI-1 renal) of over 100 µM. It also gave a TGI (CCRF-CEM leukemia) of over 100 µM, a TGI (COLO 205 colon) of over 100 µM and a TGI (DU-145 prostate) of over 100 µM. For the same molecule, the TGI (EKVX NSCLC) was over 100 µM, the TGI (HCC-2998 colon) was over 100 µM and the TGI (HCT-15 colon) was over 100 µM. The TGI (HL-60(TB) leukemia) was over 100 µM, the TGI (HOP-62 NSCLC) was over 100 µM and the TGI (HOP-92 NSCLC) was over 100 µM. The TGI (HS 578T breast) was over 100 µM, the TGI (HT29 colon) was over 100 µM and the TGI (IGROV1 ovarian) was over 100 µM. For the same molecule, the TGI (K-562 leukemia) was over 100 µM, the TGI (KM12 colon) was over 100 µM and the TGI (M14 melanoma) was over 100 µM. It also gave a TGI (MALME-3M melanoma) of over 100 µM, a TGI (MCF7 breast) of over 100 µM and a TGI (MDA-MB-231 breast) of over 100 µM. It also gave a TGI (MDA-MB-435) of over 100 µM, a TGI (MDA-N) of over 100 µM and a TGI (MOLT-4 leukemia) of over 100 µM. It also gave a TGI (NCI-H226 lung) of 80.7 µM, a TGI (NCI-H23 lung) of over 100 µM and a TGI (NCI-H460 lung) of over 100 µM. For the same molecule, the TGI (NCI-H522 lung) was 93 µM, the TGI (NCI/ADR-RES ovarian) was over 100 µM and the TGI (OVCAR-3 ovarian) was over 100 µM. For the same molecule, the TGI (OVCAR-4 ovarian) was over 100 µM, the TGI (OVCAR-5 ovarian) was over 100 µM and the TGI (OVCAR-8 ovarian) was over 100 µM. It also gave a TGI (PC-3 prostate) of over 100 µM, a TGI (RPMI-8226 leukemia) of over 100 µM and a TGI (RXF 393 renal) of 92.2 µM. For the same molecule, the TGI (SF-268 CNS) was over 100 µM, the TGI (SF-295 CNS) was over 100 µM and the TGI (SF-539 CNS) was 99.7 µM. For the same molecule, the TGI (SK-MEL-2 melanoma) was 90.9 µM, the TGI (SK-MEL-5 melanoma) was over 100 µM and the TGI (SK-OV-3 ovarian) was 72.3 µM. It also gave a TGI (SN12C renal) of over 100 µM, a TGI (SNB-19 CNS) of over 100 µM and a TGI (SNB-75 CNS) of over 100 µM. The TGI (SR leukemia) was over 100 µM, the TGI (SW-620 colon) was over 100 µM and the TGI (TK-10 renal) was over 100 µM. The TGI (U251 CNS) was 61.4 µM, the TGI (UACC-257 melanoma) was over 100 µM and the TGI (UACC-62 melanoma) was over 100 µM. It also gave a TGI (UO-31 renal) of 63.1 µM.
